Measured values published in patent publication EP3967293A1, “COMPOSITION BASED ON VITAMIN E FOR TOPIC USE” (Sigla S.r.l., priority 2020, dated 2022).

Experiments:
[1] = viscosity, Rheomat RM 180 rheometer; type: physicochemical; conditions: at 20°C; 1500 shear rate for 5 min.
Description: The viscosity is measured using a Rheomat RM 180 rheometer. The sample analysed has a temperature between 20-25°C. The settings for the viscosity test are: bob 9, tube 1, 1500 shear rate for 5 min. (300 sec.).

[2] = index of diffusion (spreading value), in vivo test on the forearm; conditions: 4 mg on the forearm; 23°C; relative humidity 60%; ten minutes after application
Description: The index of diffusion of a compound is defined as the area (in mm^2) of a skin surface covered by said compound in a specific period of time.
The method used to determine the index of diffusion of a liquid component is an in vivo test. This method consists in applying 4 mg of the component to be analysed on the front forearm of an individual. For each component, 4 separate applications were carried out on the same individual. The test is carried out at a temperature of 23°C and at a relative humidity of 60%. Ten minutes after application of a sample on the forearm the area of diffusion was photographed and measured.

## CCCCCCCCOCCCCCCCC [Dicaprylyl ether]
[1]
  Viscosity: 4 mPa·s
[2]
  Index of diffusion: 1600 mm^2/10 min.
